Assay type in all cases: physicochemical
Data set [1] is described as follows: Overall association constant by fluorescence anisotropy titration, DMPC liposomes. Conditions: for overall association constant K, DMPC: DMPC (electroneutral, fluid phase), PBS, 37° C.; for bound drug level, DMPC: DMPC liposomes, 0.29M lipid, estimated; for binding affinity for liposomes (ranking): each type of liposome. The protocol: While the spectral changes provide qualitative evidence that the camptothecin drugs bind the liposome membranes, fluorescence anisotropy titration, offers the most sensitive means for quantitatively assessing the extent of the binding. The fluorescence anisotropy titration was performed according to the method of Burke and Tritton, Biochemistry 24: 1768-1776 (1985).
The concentrations of free camptothecin drugs and camptothecin drugs associated with liposomes were determined at various lipid concentrations. All experiments were conducted in glass tubes pretreated with a silating agent, Surfacil, from Pearce Chemical, Rockford, Ill. The titration was conducted at camptothecin drug concentration of 1×10^-6 M in PBS at 37° C. Anisotropy values at each lipid concentration were determined within less than 30 seconds following the addition of the camptothecin drugs to the liposome suspension. The (a) values were determined for fixed drug concentration, typically 2 μM, while the lipid concentration was varied from 0 to 0.29M. By varying the lipid concentration rather than varying the drug concentration, the problem of self-association phenomenon which occurs for camptothecin drugs concentrations in excess of 10 μM is avoided. Also, the well-known phenomenon known as inner filter effect which occurs using fluorescent material at high optical densities is a is avoided.
Adsorption isotherms like those shown in FIGS. 4A and 4B were used to determine overall association constants for the camptothecin drugs. Overall association constants are defined as: […]
where [AB ] represents the concentration of the camptothecin drug bound to the vesicle membrane, [AF ] represents the concentration of free drug, and [L] represents the total lipid concentration in the liposome suspension. This equation is valid when the concentration of free lipid is approximately equal to the concentration of total lipid, that is, the concentration of free lipid is in great excess over the concentration of bound drug. Provided this concentration is satisfied, K may be determined from the inverse of the slope of a double reciprocal plot according to (Burke and Tritton, Biochemistry 24:1776, 1985). In such a plot, 1/bound fraction of the total camptothecin drug is plotted vs. 1/[lipid], with a y-intercept value of 1.
FIG. 6A is the double-reciprocal plot for the associations of CMC, camptothecin, camptothecin carboylate sodium salt and topotecan with DMPC at 37° C.
The stabilization of camptothecin drugs was determined using different lipids. Three types of lipids (and thus 3 types of membranes) were examined: fluid-phase and electroneutral L-α-dimyristoylphosphatidylcholine (DMPC); fluid-phase and negatively-charged L-α-dimyristoylphosphatidylglycerol (DMPG), and solid-phase and electroneutral L-α-distearoylphosphatidylcholine (DSPC). While DMPC and DMPG have identical chain length, the charge on their head groups differ. DMPC and DSPC have identical head groups, but DMPC has acyl chains having 14 carbons per chain, which are four carbons shorter than the DSPC, which has 18 carbons per chain. This difference of 4-carbon chain length results in DMPC being fluid-phase at 37° C. while DSPC is solid-phase. The 7 camptothecin drugs listed in Table III were combined with liposomes containing the above lipids.
FIGS. 4A and 4B show the extent of camptothecin drug binding to liposomes as a function of lipid concentration for DMPC and DMPG liposomes. DMPC liposomes were made as in Example 1, at lipid concentrations from 0 to 0.29M, using CMC, 10-hydroxycamptothecin, 10,11-methylenedioxy-camptothecin, topotecan, camptothecin, and camptothecin carboxylate sodium salt, as shown in FIG. 4B. DMPG liposomes were made as in Example 2, at lipid concentrations from 0 to 0.29M, using 9-chloro-10,11-methylenedioxycamptothecin CMC, 10,11-methylenedioxycamptothecin, camptothecin, and topotecan, 9-aminocamptothecin, as shown in FIG. 4A. […]

Data set [2] in a line: Fluorescence excitation and emission spectra of camptothecin drugs free in solution and bound to liposomes. Conditions: for λMAX emission, DMPC: DMPC liposomes 0.29 M; for λMAX emission, DMPC / λMAX emission, DMPG / λMAX emission, PBS: pH 7.4, 37° C.; for λMAX emission, DMPG: DMPG liposomes 0.29 M; for λMAX emission, PBS: free in PBS; for Relative Fluorescence: in PBS, pH 7.4, at excitation and emission λMAX; for λMAX excitation: pH 7.4, 2 μM drug, PBS. An excerpt: The camptothecin drugs are intrinsically intensely fluorescent. Fluorescence is associated with the extended conjugation of the quinoline ring system. The liposomes of Examples 1-7 were characterized for the presence of the camptothecin drugs, using excitation and emission spectrography, and fluorescence anisotropy.
Steady-state fluorescence measurements were obtained on a SLM Model 4800C. spectrofluorometer with a thermostated cuvette compartment. This instrument was interfaced with an IBM PS/2 model 55 SX computer. Excitation and emission spectra were recorded with an excitation resolution of 8 nm and an emission resolution of 4 nm. In all cases spectra were corrected for background fluorescence and scatter from unlabeled lipids or from solvents by subtraction of the spectrum of a blank. Steady-state fluorescence intensity measurements were made in the absence of polarizer. Steady-state anisotropy (a) measurements were determined with the instrument in the "T-format" for simultaneous measurement of two polarized intensities. The alignment of polarizers were checked routinely using a dilute suspension of 0.25 μm polystyrene microspheres from Polysciences, Inc, Warrington, Pa., in water; anisotropy values of >0.99 were obtained. The anisotropy was calculated from a=(Ivv -GlVH)/(Ivv +GIVH), where G-IVH /IHH and the subscripts refer to vertical and horizontal orientations of the excitation and emission polarizers, respectively.
Anisotropy measurements for camptothecin, camptothecin carboxylate sodium salt, and 10,11-methylenedioxycamptothecin were conducted using exciting light of 370 nm and 420 nm long wave pass filters on each emission channel in order to isolate the fluorescence signal from background scatter and signal. For topotecan a 400 nm excitation wavelength and a 500 nm emission filter were used and for 9-aminocamptothecin a 375 nm excitation and a wavelength 420 nm emission filter were used. For AMC and CMC, a 370 nm excitation wavelength and a 400 nm emission filter were used. For 10-hydroxycamptothecin 375 nm excitation wavelength 500 nm emission filter was used. Emission filters were obtained from Oriel Corp. Stamford, Conn. The combination of exciting light and emission filters allows one to adequately separate the fluorescence from the background signal. The contribution of background fluorescence, together with scattered light, was typically less than 1% of the total intensity. Since the lactone ring of the camptothecin drug undergoes hydrolysis in aqueous medium, all measurements were completed within the shortest possible time, less than 1 minute after mixing the drug stock solution with PBS or the liposomes. In each case, analysis was initiated immediately after mixing the drug stock solution with PBS or with the liposomes. All measurements were performed at 37° C. unless otherwise noted.
The relative fluorescence intensity of 1×10^-6 M of camptothecin free in PBS buffer at 37° C. is shown. The emission spectra of the camptothecin was recorded using exciting light of 370 nm.
An exciting light of 390 nm was used to record the emission spectra of topotecan. A decrease in the emission intensity is observed for topotecan associated with the DMPG liposome.
All spectra were recorded using camptothecin drug concentrations of 2
μM. The DMPC and DMPG concentrations were 0.29 M. Experiments were
conducted in PBS buffer at 37° C.
Also found in Table II is a relative index of the emission intensity levels from these camptothecin drugs in PBS at their respective excitation and emission λMAX.

Data set [3] can be described thus: Overall association constant by fluorescence anisotropy titration, DSPC liposomes. Conditions: for overall association constant K, DSPC: DSPC (electroneutral, solid phase), PBS, 37° C. (Polarisation of emitted light reports the rotation of a fluorescent probe.)
Experimental: The concentrations of free camptothecin drugs and camptothecin drugs associated with liposomes were determined at various lipid concentrations. […] The titration was conducted at camptothecin drug concentration of 1×10^-6 M in PBS at 37° C. Anisotropy values at each lipid concentration were determined within less than 30 seconds following the addition of the camptothecin drugs to the liposome suspension. […] By varying the lipid concentration rather than varying the drug concentration, the problem of self-association phenomenon which occurs for camptothecin drugs concentrations in excess of 10 μM is avoided. Also, the well-known phenomenon known as inner filter effect which occurs using fluorescent material at high optical densities is a is avoided.

Structures are written as SMILES.

As to `CCC1(O)C(=O)OCc2c1cc1n(c2=O)Cc2cc3cc(O)ccc3nc2-1` (stereo not drawn) [10-hydroxycamptothecin], the “overall association constant K, DMPC” value in data set [1] worked out at 75 M⁻¹. Also, in data set [2], the “λMAX emission, DMPC” value turned out to be 558 nm; the “λMAX emission, DMPG” value was found to be 550 nm; the “λMAX emission, PBS” value amounted to 561 nm; the “Relative Fluorescence” value turned out to be 0.5. Also, in data set [2] (37° C.), the λMAX excitation turned out to be 392 nm.
`CCC1(O)C(=O)OCc2c1cc1n(c2=O)Cc2cc3c(Cl)c4c(cc3nc2-1)OCO4` (stereo not drawn) [9-chloro-10,11-methylenedioxycamptothecin]: the “overall association constant K, DSPC” value in data set [3] is 500 M⁻¹. For the same compound, in data set [1], the “overall association constant K, DMPC” value was determined as 400 M⁻¹; the “bound drug level, DMPC” value is 99%; the “binding affinity for liposomes (ranking)” value is listed as “highest binding affinity for each type of liposome”. Also, in data set [2], the “λMAX emission, DMPG” value amounted to 417 nm; the “λMAX emission, PBS” value was found to be 410 nm; the “Relative Fluorescence” value is 1. In addition, the λMAX excitation in data set [2] (37° C.) stood at 394 nm.
As to `CC[C@@]1(O)C(=O)OCc2c1cc1n(c2=O)Cc2cc3c(CN(C)C)c(O)ccc3nc2-1` [topotecan], the “binding preference for DSPC liposomes over DMPC liposomes” value in data set [3] (dspc over dmpc liposomes) is 5 -fold. The “reduced propensity to bind electroneutral liposome membranes relative to CMC” value in data set [1] (DMPC) is 40 -fold. Besides, in data set [1], the “overall association constant K, DMPC” value amounted to 10 M⁻¹; the “bound drug level, DMPC” value is listed as 74%; the “binding affinity for liposomes (ranking)” value is listed as “lowest binding affinity for liposomes”. Moreover, the “shifting in the emission spectrum with DMPG liposomes” value in data set [2] (1 μM, DMPG liposomes) is listed as “Only a slight shifting in the emission spectrum”. Also, in data set [2], the “λMAX emission, DMPC” value was determined as 538 nm; the “λMAX emission, DMPG” value was 533 nm; the “λMAX emission, PBS” value stood at 537 nm; the “Relative Fluorescence” value is given as 1. Besides, the λMAX excitation in data set [2] (37° C.) was determined as 410 nm.
In the case of `CC[C@@]1(O)C(=O)OCc2c1cc1n(c2=O)Cc2cc3ccccc3nc2-1` [camptothecin], the “overall association constant K, DSPC” value in data set [3] was found to be 300 M⁻¹. The “binding preference for DSPC liposomes over DMPC liposomes” value in data set [3] (solid-phase DSPC over fluid-phase DMPC) is given as 3 -fold. Besides, in data set [1], the “bound drug level, DMPC” value is 97% and the “binding affinity for liposomes (ranking)” value was “intermediate binding affinities”. For the same compound, in data set [2], the “λMAX emission, DMPC” value is given as 433 nm; the “λMAX emission, DMPG” value was 422 nm; the “λMAX emission, PBS” value was 438 nm; the “Relative Fluorescence” value is recorded as 1. For the same compound, the “spectral shift on association with DMPC liposomes” value in data set [2] (DMPC, relative to free drug) is “about 5 nm”. Moreover, the λMAX excitation in data set [2] (37° C.) amounted to 366 nm. For the same compound, the “blue shift of emission λmax on binding DMPG liposomes” value in data set [2] (relative to free camptothecin, 1×10^-6 M, 37° C.) is given as “about 16 nm”.
As to `CCC1(O)C(=O)OCc2c1cc1n(c2=O)Cc2cc3cc4c(cc3nc2-1)OCO4` (stereo not drawn) [10,11-methylenedioxycamptothecin], in data set [1], the “binding affinity for liposomes (ranking)” value is “intermediate binding affinities”. Further, in data set [2], the “λMAX emission, DMPC” value stood at 408 nm; the “λMAX emission, DMPG” value is on record as 408 nm; the “λMAX emission, PBS” value is reported as 410 nm; the “Relative Fluorescence” value is 1. For the same compound, the λMAX excitation in data set [2] (37° C.) was determined as 395 nm.

Values taken from patent publication US5552156A, “Liposomal and micellular stabilization of camptothecin drugs” (Ohio State University, priority 1995, dated 1996).
